Assay results: US9051248B2, “Methods, compounds, and compositions for delivering 1,3-propanedisulfonic acid” (BHI Limited Partnership, priority 2009, dated 2015)

Assays:
[1] = Water stability (conversion of prodrug to 1,3PDS); type: physicochemical; conditions: deionized water; for Conversion to 1,3PDS (%) 1 h / Conversion to 1,3PDS (%) 2 h: 37° C.; for Conversion to 1,3PDS (%) 0 h / Conversion to 1,3PDS (%) 24 h: room temperature; for Conversion to 1,3PDS (%) 0 h: 200 μg/mL
Protocol: The objective of this test was to determine the stability of the prodrugs in simulated gastric fluid (SGF) and water at 37° C. up to 2 hours and in water at room temperature up to 24 hours.
Simulated gastric fluid and water samples were incubated in a shaking water bath at 37° C. for up to 2 hours. The compound (prodrug) was added at Time-point 0. At each selected time point (refer to table), sample aliquots were withdrawn and analyzed to determine the concentration of 1,3-propanedisulfonic acid (1,3PDS). The concentrations of 1,3PDS were calculated based on their respective peak area. The % appearance of 1,3PDS was determined by the amounts of compound determined at each time point compared to nominal concentration (100%) of 1,3PDS generated by 100% of the prodrug (equivalent concentration).
A fresh stock solution at approximately 2 mg/mL of the compound was prepared. One stability solution at 200 μg/mL in the SGF was prepared (sample referred to as Tube A). A stability solution at 200 μg/mL in deionized water was prepared (sample referred to as Tube B). Immediately after preparation, each 200 μg/mL solution was diluted in triplicates to 20 μg/mL in deionized water and analyzed using LC-MS/MS method (Time-point 0). Thereafter, the incubation of tubes A and B was continued in the shaking water bath at 37° C. for 1 and 2 hours while one aliquot of tube B was kept at room temperature for 24 hours. At each specific time point of incubation, 3 aliquots (triplicate) of 50 μL were removed, diluted in 450 μL of water and analyzed using LC-MS/MS method. In parallel, 3 reference samples of 1,3PDS at 100, 10 and 1 μg/mL were prepared, diluted in triplicate in water and injected at the beginning and at the end of the batch. These samples were considered as reference samples.
(§1) The concentrations of 1,3PDS were calculated based on response of the reference samples and their respective peak area response. The % appearance of 1,3PDS was determined by the amounts of compound determined at each time point compared to expected nominal concentration (100%) of 1,3PDS generated by 100% of the prodrug (equivalent concentration).

[2] = tested on: Salmonella typhimurium strains (TA1535, TA1537, TA98, TA100) and Escherichia coli strain WP2 uvrA; assay: Bacterial mutation tests (Ames test); type: cell-based; conditions: 1.58 to 5000 μg/plate, pre-incubation version; for Bacterial mutation test result in presence of S9: with S9 mix; for Bacterial mutation test result in absence of S9: without S9 mix
Protocol: Bacterial mutation tests were performed at Charles River Laboratories to evaluate the mutagenic potential of various prodrugs. Salmonella typhimurium strains (TA1535, TA1537, TA98, TA100) and Escherichia coli strain WP2 uvrA were treated with prodrugs at concentrations ranging from 1.58 to 5000 μg/plate in the presence and absence of a supplemented liver fraction (S9 mix) using the pre-incubation version of the bacterial mutation test. All concentrations of each compound were evaluated in triplicate. Bacteria were incubated with standard positive control agents, and the response of the various bacterial strains to these agents confirmed the sensitivity of the test system and the activity of the S9 mix.

[3] = In vivo study in ferrets (clinical signs after oral gavage); conditions: male ferrets, oral administration, standard dose as printed
Protocol: One group of three male non-naïve ferrets (domestic strain, >16 weeks, >1.2 Kg) were starved for approximately 1.5 h prior to administration of a dosing formulation. Food was given 2 hours post dose. […] The dosing volume was adjusted to 5 mL/kg. Clinical signs were recorded throughout the study period. […] Plasma samples were stored frozen at −80° C. pending transfer to analysis. An aliquot of dosing solution (0.5 mL) was taken prior to dosing and stored frozen at −20° C. pending transfer to analysis. Animals used for multiple studies after a wash out of a minimum twelve day period.

[4] = Human whole blood stability; type: in vitro ADME; conditions: fresh human whole blood, 37° C., about 100 μg/mL, 0 h
Protocol: The objective of this test was to determine the stability of the prodrugs in fresh human whole blood at different time-points (0, 0.5, 1, 4, 24 hours). Blood samples were incubated in a shaking water bath at 37° C. for up to 24 hours. The compound (prodrug) was added at Time-point 0, and sample aliquots were withdrawn and analyzed at each time point to determine the concentration of 1,3PDS. If possible, the loss of compound was determined by the amounts of compound determined at each time point compared to the amount determined at Time-point 0. To eliminate the conversion due to the matrix, a special Time-point 0 was prepared in pre-extracted blood sample.
Approximately 2.5 mL of whole blood was incubated in a gently shaking water bath at 37° C. for 15 minutes. Two (2) mL of the pre-incubated whole blood were aliquoted in an eppendorf tube. A 100 μL aliquot of blood was removed and 100 μL of the compound Stock Solution was added. The solution was mixed by inversion. This sample was referred to as Tube A. The final concentration of the compound in tube A was approximately at 100 μg/mL. Immediately after mixing, 100 μL of Tube A was aliquotted into 3 different eppendorf tubes. These samples were extracted as described in the “Extraction Procedure” Section. These samples were referred to Time-point 0. Thereafter, the incubation of Tube A was continued in the shaking water bath at 37° C. for 0.5, 1, 4 and 24 hours. At each specific time point of incubation, aliquots (triplicate) of 100 μL were removed and extracted as described in the “Extraction Procedure” Section. To avoid potential further degradation of compound and/or possible degradation products, the aliquot extracts were kept on ice until analysis. After extraction, samples were analyzed using LC-MS/MS method.
A volume of 300 μL of cold-ice acetonitrile was added to a 1.5 mL eppendorf tube and kept on ice until utilization. 100 μL of the sample to be extracted was added and the mix was vortexed (acetonitrile and blood). The sample was centrifuged at 16250×g (13200 rpm on IEC centrifuge with eppendorf rotor) for 5 minutes. A volume of 250 μL of the supernatant was transferred to another tube and evaporated to dryness under a nitrogen stream. The residue was reconstituted with the mobile phase. This sample was then analyzed according to 1,3PDS specific methods.
as §1, with “the nominal concentration” for “response”, “calibration standards” for “reference samples”, “ratio. A linear regression using a weight of 1/x^2 is used to derive the concentration of 1,3PDS.” for “response.”, “to” for “to expected”

Row | Conversion to 1,3PDS (%) 1 h [1] | Conversion to 1,3PDS (%) 2 h [1] | Conversion to 1,3PDS (%) 0 h [1] | SMILES | Bacterial mutation test result in presence of S9 [2] | Bacterial mutation test result in absence of S9 [2] | Clinical signs / side effects in ferrets [3] | other results
1 | 1.0% | 1.6% | 0.4% | CC(C)(C)COS(=O)(=O)CCCS(=O)(=O)[O-].[Na+] [A6(Na)] |  |  |  | Conversion to 1,3PDS (%) 24 h [1]: 1.4%
2 | 14.6% | 18.8% | 7.0% | CC(C)(CNC(=O)[C@H](Cc1ccccc1)NC(=O)OC(C)(C)C)COS(=O)(=O)CCCS(=O)(=O)[O-].[Na+] [A52(K)] |  |  |  | Conversion to 1,3PDS (%) 24 h [1]: 21.3%
3 | 0.0% | 0.0% | 0.0% | CC(OC(=O)NCCC(C)(C)COS(=O)(=O)CCCS(=O)(=O)O)OC(=O)C(C)C (stereo not shown) [Compound A13] |  |  |  | Conversion to 1,3PDS (%) 24 h [1]: 0.0%
4 | 0.4% | 1.4% | 0.2% | CC(C)[C@H](N)C(=O)NCCC(C)(C)COS(=O)(=O)CCCS(=O)(=O)O [Compound A14] |  |  |  | 
5 |  |  |  | CCOC(=O)C(C)(N)COS(=O)(=O)CCCS(=O)(=O)O (stereo not shown) [Compound A61] | Positive | Positive | no clinical signs | 
6 | 0.4% | 0.4% | 0.3% | CC(OC(=O)NCCC(C)(C)COS(=O)(=O)CCCS(=O)(=O)OCC(C)(C)CCNC(=O)OC(C)OC(=O)C(C)C)OC(=O)C(C)C (stereo not shown) [Compound B13] |  |  |  | 
7 | 0.0% | 0.0% | 0.0% | CC(C)[C@H](N)C(=O)NCCC(C)(C)COS(=O)(=O)CCCS(=O)(=O)OCC(C)(C)CCNC(=O)[C@@H](N)C(C)C [Compound B14] |  |  |  | 
8 | 0.0% | 0.0% | 0.0% | CC(C)(CCOC(=O)c1ccccc1)COS(=O)(=O)CCCS(=O)(=O)OCC(C)(C)CCOC(=O)c1ccccc1 [Compound B23] |  |  |  | Conversion to 1,3PDS (%) 24 h [1]: 0.0%
9 |  |  |  | CCOC(=O)C(C)(C)COS(=O)(=O)CCCS(=O)(=O)OCC(C)(C)C(=O)OCC [Compound B29] | Positive | Negative | no clinical signs | 
10 | 0.0% | 0.0% | 0.0% | CC(C)(COS(=O)(=O)CCCS(=O)(=O)OCC(C)(C)C(=O)OCc1ccccc1)C(=O)OCc1ccccc1 [Compound B30] |  |  |  | Conversion to 1,3PDS (% by molar ratio) 0 h [4]: BLLQ; Conversion to 1,3PDS (%) 24 h [1]: 0.0%
11 |  |  |  | CC(C)(COS(=O)(=O)CCCS(=O)(=O)OCC(C)(C)C(=O)O)C(=O)O [Compound B58] | Positive | Positive | vomiting | 
12 |  |  |  | CCOC(=O)C(C)(C)C(C)OS(=O)(=O)CCCS(=O)(=O)OC(C)C(C)(C)C(=O)OCC (stereo not shown) [Compound B68] | Negative | Negative |  | 
13 |  |  |  | CCOC(=O)CCC(C)(C)COS(=O)(=O)CCCS(=O)(=O)OCC(C)(C)CCC(=O)OCC [Compound B75] | Negative | Negative | 2 out of 3 animals showed abdomen scratching but recovered after 1 h | 
14 |  |  |  | CC1(COS(=O)(=O)CCCS(=O)(=O)OCC2(C)CCOC2=O)CCOC1=O (stereo not shown) [Compound B76] | Negative | Negative | no clinical signs | 
15 |  |  |  | CC1(C)COC(=O)C1OS(=O)(=O)CCCS(=O)(=O)OC1C(=O)OCC1(C)C (stereo not shown) [Compound B77] | Negative | Negative | no clinical signs | 
16 |  |  |  | CC1(COS(=O)(=O)CCCS(=O)(=O)OCC2(C)CCC(=O)O2)CCC(=O)O1 (stereo not shown) [Compound B78] | Negative | Negative |  | 
17 |  |  |  | CCOC(=O)C(OS(=O)(=O)CCCS(=O)(=O)OC(C(=O)OCC)C(C)(C)C)C(C)(C)C (stereo not shown) [Compound B82] |  |  | no clinical signs | 
18 |  |  |  | CCOC(=O)C(OS(=O)(=O)CCCS(=O)(=O)OC(C(=O)OCC)C(C)C)C(C)C (stereo not shown) [Compound B83] | Negative | Negative | no clinical signs | 
19 |  |  |  | O=S1(=O)CCCS(=O)(=O)OCO1 [Compound C2] |  |  | severe toxicity | 
20 |  |  |  | CC(C)(C)C(=O)OCOS(=O)(=O)CCCS(=O)(=O)OCOC(=O)C(C)(C)C [Compound D1] |  |  | green face | 
21 |  |  |  | CCCC(=O)OCOS(=O)(=O)CCCS(=O)(=O)OCOC(=O)CCC [Compound D3] |  |  | abdominal contracting and/or vomiting | 
22 |  |  |  | O=C(OCOS(=O)(=O)CCCS(=O)(=O)OCOC(=O)C1CCCCC1)C1CCCCC1 [Compound D5] |  |  | abdominal contracting and/or vomiting | 
23 |  |  |  | CCC(=O)OCOS(=O)(=O)CCCS(=O)(=O)OCOC(=O)CC [Compound D7] |  |  | abdominal contracting and/or vomiting | 

Row | SMILES | Conversion to 1,3PDS (%) 1 h [1] | Conversion to 1,3PDS (%) 2 h [1] | Conversion to 1,3PDS (%) 0 h [1] | Bacterial mutation test result in presence of S9 [2] | Bacterial mutation test result in absence of S9 [2] | Clinical signs / side effects in ferrets [3] | other results
24 | CC(C)(CNC(=O)[C@@H](N)Cc1ccccc1)COS(=O)(=O)CCCS(=O)(=O)O [Compound A51] | 14% | 18% | 13% | Negative | Negative | no clinical signs | 
